The values below come from publication PMC4467461, “Small-molecule activation of SERCA2a SUMOylation for the treatment of heart failure” (Nature Communications, 2015).

The assay deals with HEK-293 cells co-transfected with SERCA2a and SAE1 mutants (Q312A and V315F). Kind of assay: N106-induced SERCA2a SUMOylation in HEK-293 cells overexpressing SAE1 mutants. In kind it is cell-based. As to the method: Supplementary Figure 4. Effects of overexpressing SAE1 mutants on N106-induced SERCA2a SUMOylation. (a) HEK-293 cells were co-transfected with SERCA2a and SAE1 wild type or SAE1 mutants (Q312A and V315F) for 24 hours. And then the transfecting HEK-293 cells were incubated with different concentration of N106 for 24 hours. The level of SERCA2a SUMOylation was determined by immunoprecipitation and following with Western blotting. (b) The levels of SAE1 overexpression were determined by Western blotting with anti- […]
(1 picture or pasted object on this page, not shown here)

In the case of `COc1ccc(-c2nnc(Nc3nc4c(OC)cccc4s3)o2)cc1` [Compound N106, N-(4-methoxybenzo[d]thiazol-2-yl)-5-(4-methoxyphenyl)-1,3,4-oxadiazol-2-amine], the “N106-induced increase in SUMOylation of SERCA2a in mutant SAE1-overexpressing cells versus overexpressed WT” value (24 h) is reported as “weaker”. The “Dose-dependent increases in SERCA2a SUMOylation in cells overexpressing mutants” value (different concentration of N106, 24 h) is recorded as “not observed”.
